Consider 22 compounds from PubChem BioAssay AID330 (DTP/NCI, 2004).

Each structure is given as a SMILES string. “And” between values parts separate entries of the source, which are not always exact repeats. Equal entries are not always repeated. Toxic doses and inconclusive results are not listed.

This assay concerns P388 leukemia ip, CD2F1 mice, survival T/C. The experiment in a line: NCI In Vivo Anticancer Drug Screen. Data for tumor model P388 Leukemia (intraperitoneal) in CD2F1 (CDF1) mice. The following applies: endpoint: median survival time, higher = longer survival. The method in brief:
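Mice carrying the transplanted tumor received test compound or vehicle. Survival was recorded in each group, and the value is the treated-group measurement divided by that of the vehicle-treated control group.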

Setting [1] is: dose: 100.0 mg/kg/injection, schedule: Q01DX009 (ip), vehicle: Klucel (hydroxypropylcellulose) (HPC).
The mark [2] stands for this setting: dose: 200.0 mg/kg/injection, schedule: Q01DX009 (ip), vehicle: Klucel (hydroxypropylcellulose) (HPC).
The mark [3] stands for this setting: dose: 6.25 mg/kg/injection, schedule: Q01DX009 (ip), vehicle: Klucel (hydroxypropylcellulose) (HPC).
Setting [4] is: dose: 50.0 mg/kg/injection, schedule: Q01DX005 (ip), vehicle: Klucel (hydroxypropylcellulose) (HPC).
The mark [5] stands for this setting: dose: 100.0 mg/kg/injection, schedule: Q01DX005 (ip), vehicle: Klucel (hydroxypropylcellulose) (HPC).
Where [6] appears, read: dose: 200.0 mg/kg/injection, schedule: Q01DX005 (ip), vehicle: Klucel (hydroxypropylcellulose) (HPC).
Where [7] appears, read: dose: 50.0 mg/kg/injection, schedule: Q01DX001 (ip), vehicle: Klucel (hydroxypropylcellulose) (HPC).
Where [8] appears, read: dose: 100.0 mg/kg/injection, schedule: Q01DX001 (ip), vehicle: Klucel (hydroxypropylcellulose) (HPC).
[9] abbreviates: dose: 50.0 mg/kg/injection, schedule: Q01DX005 (ip), vehicle: saline with Tween-80.

Consider `O=c1cc(-c2ccccc2)nc(Sc2ccc([N+](=O)[O-])cc2[N+](=O)[O-])[nH]1`, for which the T/C was 98 % of control (dose: 50.0 mg/kg/injection, schedule: Q01DX009 (ip), vehicle: Klucel (hydroxypropylcellulose) (HPC)); 98 % of control under setting [1]; 93 % of control under setting [2].
In the case of `COc1cc2oc(-c3ccc(O)cc3O)c(CC=C(C)C)c(=O)c2c(O)c1/C=C/C(C)C`, the T/C is 107 % of control (dose: 1.56 mg/kg/injection, schedule: Q01DX009 (ip), vehicle: Klucel (hydroxypropylcellulose) (HPC)); 105 % of control (dose: 3.12 mg/kg/injection, schedule: Q01DX009 (ip), vehicle: Klucel (hydroxypropylcellulose) (HPC)); 100 % of control under setting [3]; 98 % of control (dose: 12.5 mg/kg/injection, schedule: Q01DX009 (ip), vehicle: Klucel (hydroxypropylcellulose) (HPC)).
Turning to `CO`, the T/C by setting is: (dose: 0.5 % in 0.5 ml injection vol, schedule: Q01DX009 (ip), vehicle: water) 105 % of control; (dose: 1.0 % in 0.5 ml injection vol, schedule: Q01DX009 (ip), vehicle: water) 102 % of control; (dose: 2.0 % in 0.5 ml injection vol, schedule: Q01DX009 (ip), vehicle: water) 104 % of control; (dose: 4.0 % in 0.5 ml injection vol, schedule: Q01DX009 (ip), vehicle: water) 104 % of control; (dose: 8.0 % in 0.5 ml injection vol, schedule: Q01DX009 (ip), vehicle: water) 100 % of control and 107 % of control; (dose: 16.0 % in 0.5 ml injection vol, schedule: Q01DX009 (ip), vehicle: water) 94 % of control.
As for `CCCC(=O)C(=O)c1ccc(O)c(C)c1O`, the T/C (dose: 50.0 mg/kg/injection, schedule: Q01DX009 (ip), vehicle: saline with Tween-80) is 101 % of control; the T/C (dose: 100.0 mg/kg/injection, schedule: Q01DX009 (ip), vehicle: saline with Tween-80) was 99 % of control; the T/C (dose: 200.0 mg/kg/injection, schedule: Q01DX009 (ip), vehicle: saline with Tween-80) is 102 % of control.
Turning to `NP1(Oc2ccc(F)cc2)=NP(N)(Oc2ccc(F)cc2)=NP(Oc2ccc(F)cc2)(Oc2ccc(F)cc2)=N1` (centres undefined), the T/C is, setting by setting: (dose: 60.0 mg/kg/injection, schedule: Q01DX005 (ip), vehicle: saline with Tween-80) 90 % of control; (dose: 120.0 mg/kg/injection, schedule: Q01DX005 (ip), vehicle: saline with Tween-80) 96 % of control; (dose: 240.0 mg/kg/injection, schedule: Q01DX005 (ip), vehicle: saline with Tween-80) 89 % of control.
`COc1ccc(Oc2ccc(C(=O)C(CN(C)C)CN(C)C)cc2)cc1`: the T/C is, setting by setting: (dose: 3.75 mg/kg/injection, schedule: Q01DX005 (ip), vehicle: saline) 121 % of control; (dose: 7.5 mg/kg/injection, schedule: Q01DX005 (ip), vehicle: saline) 124 % of control; (dose: 30.0 mg/kg/injection, schedule: Q01DX005 (ip), vehicle: saline) 88 % of control.
As to `CCOC(=O)c1cnc(SC)n(-c2ccc(OC)cc2)c1=O`, the T/C was 107 % of control under setting [4], 92 % of control under setting [5] and 101 % of control under setting [6].
With `COc1cc(NS(C)(=O)=O)ccc1Nc1c2ccccc2nc2c(C)cccc12`, the T/C reads like this: (dose: 1.25 mg/kg/injection, schedule: Q01DX009 (ip), vehicle: saline with Tween-80) 155 % of control; (dose: 2.5 mg/kg/injection, schedule: Q01DX009 (ip), vehicle: saline with Tween-80) 165 % of control; (dose: 5.0 mg/kg/injection, schedule: Q01DX009 (ip), vehicle: saline with Tween-80) 87 % of control; under setting [3], 97 % of control.
As for `BrCC1(CBr)COC1`, the T/C reads like this: under setting [7], 95 % of control; under setting [8], 107 % of control; (dose: 200.0 mg/kg/injection, schedule: Q01DX001 (ip), vehicle: Klucel (hydroxypropylcellulose) (HPC)) 100 % of control.
Regarding `CC(=O)Oc1ccc(C2c3c(n(C(C)=O)c4ccccc34)C(=O)NN2C(C)=O)cc1` (centres undefined), the T/C reads like this: under setting [4], 100 % of control; under setting [5], 109 % of control; under setting [6], 112 % of control.
Consider `N#CC1C(=O)NC(=O)C(C#N)C1CCc1ccccc1` (centres undefined), for which the T/C is, setting by setting: (dose: 50.0 mg/kg/injection, schedule: Q01DX009 (ip), vehicle: distilled water + alcohol) 103 % of control; (dose: 100.0 mg/kg/injection, schedule: Q01DX009 (ip), vehicle: distilled water + alcohol) 100 % of control; (dose: 200.0 mg/kg/injection, schedule: Q01DX009 (ip), vehicle: distilled water + alcohol) 100 % of control.
Regarding `CCOC(=O)C(C#N)C(c1ccc2c(c1)OCO2)N(CCO)CCO` (centres undefined), the T/C reads like this: under setting [4], 93 % of control; under setting [5], 99 % of control; under setting [6], 99 % of control.
Turning to `Cn1c(N)c(N=O)c(=O)n(C)c1=O`, the T/C is 90 % of control (dose: 90.0 mg/kg/injection, schedule: Q01DX009 (ip), vehicle: saline with Tween-80); 95 % of control (dose: 180.0 mg/kg/injection, schedule: Q01DX009 (ip), vehicle: saline with Tween-80); 95 % of control (dose: 360.0 mg/kg/injection, schedule: Q01DX009 (ip), vehicle: saline with Tween-80).
For `O=C1c2ccccc2C(=O)N1OCc1csc(-c2ccccc2)n1`, the T/C by setting is: under setting [4], 95 % of control; under setting [5], 101 % of control.
As to `CC1C[P+](c2ccccc2)(c2ccccc2)Cc2ccccc21` (centres undefined), the T/C reads like this: (dose: 6.25 mg/kg/injection, schedule: Q01DX001 (ip), vehicle: saline) 101 % of control and 105 % of control and 108 % of control; (dose: 12.5 mg/kg/injection, schedule: Q01DX001 (ip), vehicle: saline) 101 % of control and 117 % of control.
As to `COc1cc(CC(=O)O)c([N+](=O)[O-])cc1C`, the T/C is, setting by setting: (dose: 25.0 mg/kg/injection, schedule: Q01DX001 (ip), vehicle: Klucel (hydroxypropylcellulose) (HPC)) 90 % of control; under setting [7], 91 % of control; under setting [8], 91 % of control.
Turning to `O=C(CCNC(=O)OCc1ccccc1)NC(CSCc1ccccc1)C(=O)O` (centres undefined), the T/C (dose: 6.25 mg/kg/injection, schedule: Q01DX009 (ip), vehicle: water) was 100 % of control; the T/C (dose: 12.5 mg/kg/injection, schedule: Q01DX009 (ip), vehicle: water) was 100 % of control; the T/C (dose: 25.0 mg/kg/injection, schedule: Q01DX009 (ip), vehicle: water) is 95 % of control; the T/C (dose: 50.0 mg/kg/injection, schedule: Q01DX009 (ip), vehicle: water) is 100 % of control; the T/C (dose: 100.0 mg/kg/injection, schedule: Q01DX009 (ip), vehicle: water) is 95 % of control.
Take `O=[N+]([O-])c1ccc(SC2=NCCCN2C2CCCCC2)c(Cl)c1`: the T/C under setting [4] was 97 % of control, the T/C under setting [5] is 100 % of control and the T/C under setting [6] was 103 % of control.
Take `O=C1C=C(c2ccccc2)S(=O)(=O)c2ccc(O)cc21`: the T/C by setting is: under setting [9], 121 % of control; (dose: 100.0 mg/kg/injection, schedule: Q01DX005 (ip), vehicle: saline with Tween-80) 110 % of control.
Regarding `c1ccc(-c2nc3ccccc3[nH]2)nc1`, the T/C (dose: 25.0 mg/kg/injection, schedule: Q04DX003 (ip), vehicle: Klucel (hydroxypropylcellulose) (HPC)) was 101 % of control; the T/C (dose: 50.0 mg/kg/injection, schedule: Q04DX003 (ip), vehicle: Klucel (hydroxypropylcellulose) (HPC)) was 96 % of control; the T/C under setting [1] is 115 % of control; the T/C (dose: 100.0 mg/kg/injection, schedule: Q04DX003 (ip), vehicle: Klucel (hydroxypropylcellulose) (HPC)) was 101 % of control; the T/C under setting [2] is 99 % of control; the T/C (dose: 200.0 mg/kg/injection, schedule: Q04DX003 (ip), vehicle: Klucel (hydroxypropylcellulose) (HPC)) is 93 % of control. Besides, for the setting “dose: 400.0 mg/kg/injection, schedule: Q01DX009 (ip), vehicle: Klucel (hydroxypropylcellulose) (HPC)”, the T/C is 101 % of control.
As to `COC1(OC)CCN2OC(CO)CC21` (centres undefined), the T/C (dose: 25.0 mg/kg/injection, schedule: Q04DX003 (ip), vehicle: saline with Tween-80) is 103 % of control; the T/C (dose: 50.0 mg/kg/injection, schedule: Q04DX003 (ip), vehicle: saline with Tween-80) was 100 % of control; the T/C (dose: 100.0 mg/kg/injection, schedule: Q04DX003 (ip), vehicle: saline with Tween-80) was 100 % of control and 101 % of control.
For the compound `NCC1CC2(Cl)C(Cl)=C(Cl)C1(Cl)C2(Cl)Cl` (centres undefined), the T/C is, setting by setting: (dose: 12.5 mg/kg/injection, schedule: Q01DX005 (ip), vehicle: saline with Tween-80) 106 % of control; (dose: 25.0 mg/kg/injection, schedule: Q01DX005 (ip), vehicle: saline with Tween-80) 107 % of control; under setting [9], 107 % of control and 111 % of control.
